Results: patent US11571430B2, “Platinum(II) ammine selenourea complexes and methods of treating cancer” (KING FAHD UNIVERSITY OF PETROLEUM AND MINERALS, priority 2020, dated 2023)
Entries after “also recorded” stand apart in the source; their conditions may differ.

Columns and labels:
Format in all cases: cell-based, human
A549 (lung cancer cells) = assay: In vitro cytotoxicity, MTT assay, A549; settings: for IC50: 72 h incubation, A549 lung cancer cells, read-out: IC50 values against A549; for in vitro cytotoxicity in words, A549: A549, compared to cisplatin
Experimental: (§1) The solutions of Pt(II) complexes 1-5 and cisplatin (classical standard control) with 1.0 μM, 5.0 μM, 10.0 μM, 25.0 μM, 50.0 μM and 100.0 μM concentrations were prepared in DMEM. The cancer cells, HeLa (cervical cancer), A549 (Lung cancer) and HCT-116 (colon cancer) were seeded and maintained in quadruplicate in a 96-well tissue culture plate at 5×10^4 cells per well in 200 μL of the same medium. The cancer cells were incubated for 24 hours before the treatment. All compounds were dissolved in 50 vol % DMSO (50/50 v/v DMSO/DMEM). Therefore, DMSO was used as a negative control. The final DMSO concentration in each well, was less than 0.1%. The cancer cells were treated with the synthesized complexes (1-5) along with cisplatin and the resultant cultures were incubated for 72 h. The medium of wells was discarded and 100 μL DMEM containing MTT (3-(4,5-dimethylthiazol-2-yl)-2,5-diphenyltetrazolium bromide) (5 mg/mL) was added to the wells and incubated in a CO2 incubator at 37° C. in the dark for 4 hrs. After incubation, a purple colored formazan (artificial chromogenic dye, a product of the reduction of water insoluble tetrazolium salts e.g., MTT by dehydrogenases and reductases) in the cells is produced and appeared as dark crystals in the bottom of the wells. The medium of culture was discarded from each well carefully to avoid disruption of the monolayer. 100 μL of isopropanol was added in each well. The solution was thoroughly mixed in the wells to dissolve the formazan crystals which ultimately results into a purple solution. The absorbance of the 96-well plate was taken at 570 nm with Mithras 2LB943 against reagent blank.
(§2) The in vitro cytotoxicity of the prepared compounds (1-5) and cisplatin in DMSO was examined by the MTT assay against three human cancer cells namely, HeLa (cervical cancer cells), A549 (lung cancer cells) and HCT-116 (colon cancer cells). The survival of the cells as a function of concentration of compounds 1-5 (and compared to cisplatin) is shown in FIGS. 1A-1F, 2, 3A-3F, 4, 5A-5F, and 6. […] See Altoum A O S, Alhoshani A, Alhosaini K, et al (2017a) Synthesis, characterization and in vitro cytotoxicity of platinum(II) complexes of selenones [Pt(selenone)2Cl2]. J Coord Chem 70:1020-1031; Altoum A O S, Vančo J, Křikavová R, et al (2017b) Synthesis, structural characterization and cytotoxicity evaluation of platinum(II) complexes of heterocyclic selenones. Polyhedron 128:2-8; Ahmad S, Altoum A O S, Vančo J, et al (2018) Synthesis, crystal structure and anticancer activity of tetrakis(N-isopropylimidazolidine-2-selenone)platinum(II) chloride. J Mol Struct 1152:232-236; and Alhoshani A, Seliman A A A, Altoum A O, et al (2019) Synthesis, X-ray structure and in vitro cytotoxicity of trans-diammineplatinum(II) complexes of selenones, trans-[Pt(NH3)2(selenone)2](NO3)2. Polyhedron 158:234-240, each incorporated herein by reference in their entirety.

[1] = tested on: HCT-116 (colon cancer cells); assay: In vitro cytotoxicity, MTT assay, HCT-116; settings: for IC50: 72 h incubation, HCT-116 colon cancer cells, read-out: IC50 values against HCT-116; for in vitro cytotoxicity in words, HCT-116: HCT-116, compared to cisplatin
Experimental: as §1, §2

[2] = tested on: HeLa (cervical cancer cells); assay: In vitro cytotoxicity, MTT assay, HeLa; settings: for IC50: 72 h incubation, HeLa cervical cancer cells, read-out: IC50 values against HeLa; for in vitro cytotoxicity in words, HeLa: compared to cisplatin
Experimental: as §1, §2

| SMILES | IC50 (A549 (lung cancer cells)) [µM] | IC50 [1] [µM] | IC50 [2] [µM] | in vitro cytotoxicity in words, A549 (A549 (lung cancer cells)) | in vitro cytotoxicity in words, HCT-116 [1] | in vitro cytotoxicity in words, HeLa [2] |
| --- | --- | --- | --- | --- | --- | --- |
| N.N.[Cl][Pt][Cl] [Cisplatin, cis-diamminedichloridoplatinum(II), reference compound] | 12.5 | > 100 | 8.1 | – | – | – |
| N.N.NC(N)=[Se][Pt+2][Se]=C(N)N.O=[N+]([O-])[O-].O=[N+]([O-])[O-] [Complex 1, [Pt(NH3)2(Seu)2](NO3)2] | > 100 | 5.4 | > 100 | no activity | has activity against HCT-116 only; also recorded: excellent cytotoxic activity | no activity |
| CNC(NC)=[Se][Pt+2][Se]=C(NC)NC.N.N.O=[N+]([O-])[O-].O=[N+]([O-])[O-] [Complex 2, [Pt(NH3)2(Me2Seu)2](NO3)2] | 54 | > 100 | 12.2 | almost inactive | almost inactive | cytotoxicity comparable to cisplatin |
| C1CNC(=[Se][Pt+2][Se]=C2NCCCN2)NC1.N.N.O=[N+]([O-])[O-].O=[N+]([O-])[O-] [Complex 4, [Pt(NH3)2(DiazSe)2](NO3)2] | 6.74 | 7.7 | 3.7 | cytotoxicity higher than cisplatin; also recorded: excellent cytotoxic activity | cytotoxicity higher than cisplatin; also recorded: excellent cytotoxic activity | cytotoxicity higher than cisplatin; also recorded: excellent cytotoxic activity |
| C1CCNC(=[Se][Pt+2][Se]=C2NCCCCN2)NC1.N.N.O=[N+]([O-])[O-].O=[N+]([O-])[O-] [Complex 5, [Pt(NH3)2(DiapSe)2](NO3)2] | > 100 | > 100 | > 100 | ineffective | ineffective | ineffective |
